For one data set, the target named is T1, Cytochrome P450 1A2 (Homo sapiens, UniProt P05177).
T1 sequence (P05177 whole entry): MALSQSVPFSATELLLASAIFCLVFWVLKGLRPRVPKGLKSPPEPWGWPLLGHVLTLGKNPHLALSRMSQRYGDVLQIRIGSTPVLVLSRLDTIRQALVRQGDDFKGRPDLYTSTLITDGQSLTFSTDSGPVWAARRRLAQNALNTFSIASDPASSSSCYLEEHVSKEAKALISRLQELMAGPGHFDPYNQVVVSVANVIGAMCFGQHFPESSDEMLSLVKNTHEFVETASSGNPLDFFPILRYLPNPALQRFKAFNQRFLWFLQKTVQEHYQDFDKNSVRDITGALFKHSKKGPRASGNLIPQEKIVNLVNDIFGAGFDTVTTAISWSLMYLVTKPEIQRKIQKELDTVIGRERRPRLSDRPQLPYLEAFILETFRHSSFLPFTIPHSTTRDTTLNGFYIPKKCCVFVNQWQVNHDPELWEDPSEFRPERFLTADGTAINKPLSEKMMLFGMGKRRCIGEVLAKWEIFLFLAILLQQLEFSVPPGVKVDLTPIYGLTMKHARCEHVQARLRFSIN
Conditions: bti-tn-5b1-4.

A further data set addresses D(1A) dopamine receptor (Homo sapiens, UniProt P21728). Kind of data set: DRUGMATRIX: Dopamine D1 radioligand binding (ligand: [3H] SCH-23390). Type of data set: cell membranes, CHO, Membrane. The following applies: cho; Not Active = under 50% inhibition at 10 µM.
In a further data set the target is T2, Glucocorticoid receptor (Homo sapiens, UniProt P04150). Further: in other assays of this panel Not Active means under 50% inhibition at 10 µM.
T2 sequence (P04150 whole entry): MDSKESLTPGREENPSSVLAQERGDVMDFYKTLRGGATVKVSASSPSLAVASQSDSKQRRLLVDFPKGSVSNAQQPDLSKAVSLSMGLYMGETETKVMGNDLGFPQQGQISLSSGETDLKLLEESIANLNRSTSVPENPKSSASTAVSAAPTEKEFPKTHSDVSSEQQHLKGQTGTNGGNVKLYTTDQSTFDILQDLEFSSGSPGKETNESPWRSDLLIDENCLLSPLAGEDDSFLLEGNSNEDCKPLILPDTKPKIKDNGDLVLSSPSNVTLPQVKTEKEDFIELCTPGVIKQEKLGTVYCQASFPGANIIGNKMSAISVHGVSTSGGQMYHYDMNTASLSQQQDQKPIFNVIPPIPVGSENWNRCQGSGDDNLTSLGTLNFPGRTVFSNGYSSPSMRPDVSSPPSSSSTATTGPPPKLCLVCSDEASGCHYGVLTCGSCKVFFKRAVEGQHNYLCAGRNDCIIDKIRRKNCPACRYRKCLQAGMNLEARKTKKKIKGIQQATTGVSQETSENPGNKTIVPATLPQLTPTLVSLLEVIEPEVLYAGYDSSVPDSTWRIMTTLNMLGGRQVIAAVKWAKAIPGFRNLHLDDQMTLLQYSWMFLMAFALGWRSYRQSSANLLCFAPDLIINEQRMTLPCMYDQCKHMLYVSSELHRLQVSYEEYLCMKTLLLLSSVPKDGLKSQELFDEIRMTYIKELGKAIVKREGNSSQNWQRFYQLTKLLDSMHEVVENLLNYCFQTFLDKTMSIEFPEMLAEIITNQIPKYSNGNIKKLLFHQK
Conditions: hela s3.

The target in data set [1] is Voltage-gated inwardly rectifying potassium channel KCNH2 (Homo sapiens, UniProt Q12809). Conditions: hek293. Further: in other assays of this panel Not Active means under 50% inhibition at 10 µM.
Sequence of Voltage-gated inwardly rectifying potassium channel KCNH2 (Q12809 whole entry): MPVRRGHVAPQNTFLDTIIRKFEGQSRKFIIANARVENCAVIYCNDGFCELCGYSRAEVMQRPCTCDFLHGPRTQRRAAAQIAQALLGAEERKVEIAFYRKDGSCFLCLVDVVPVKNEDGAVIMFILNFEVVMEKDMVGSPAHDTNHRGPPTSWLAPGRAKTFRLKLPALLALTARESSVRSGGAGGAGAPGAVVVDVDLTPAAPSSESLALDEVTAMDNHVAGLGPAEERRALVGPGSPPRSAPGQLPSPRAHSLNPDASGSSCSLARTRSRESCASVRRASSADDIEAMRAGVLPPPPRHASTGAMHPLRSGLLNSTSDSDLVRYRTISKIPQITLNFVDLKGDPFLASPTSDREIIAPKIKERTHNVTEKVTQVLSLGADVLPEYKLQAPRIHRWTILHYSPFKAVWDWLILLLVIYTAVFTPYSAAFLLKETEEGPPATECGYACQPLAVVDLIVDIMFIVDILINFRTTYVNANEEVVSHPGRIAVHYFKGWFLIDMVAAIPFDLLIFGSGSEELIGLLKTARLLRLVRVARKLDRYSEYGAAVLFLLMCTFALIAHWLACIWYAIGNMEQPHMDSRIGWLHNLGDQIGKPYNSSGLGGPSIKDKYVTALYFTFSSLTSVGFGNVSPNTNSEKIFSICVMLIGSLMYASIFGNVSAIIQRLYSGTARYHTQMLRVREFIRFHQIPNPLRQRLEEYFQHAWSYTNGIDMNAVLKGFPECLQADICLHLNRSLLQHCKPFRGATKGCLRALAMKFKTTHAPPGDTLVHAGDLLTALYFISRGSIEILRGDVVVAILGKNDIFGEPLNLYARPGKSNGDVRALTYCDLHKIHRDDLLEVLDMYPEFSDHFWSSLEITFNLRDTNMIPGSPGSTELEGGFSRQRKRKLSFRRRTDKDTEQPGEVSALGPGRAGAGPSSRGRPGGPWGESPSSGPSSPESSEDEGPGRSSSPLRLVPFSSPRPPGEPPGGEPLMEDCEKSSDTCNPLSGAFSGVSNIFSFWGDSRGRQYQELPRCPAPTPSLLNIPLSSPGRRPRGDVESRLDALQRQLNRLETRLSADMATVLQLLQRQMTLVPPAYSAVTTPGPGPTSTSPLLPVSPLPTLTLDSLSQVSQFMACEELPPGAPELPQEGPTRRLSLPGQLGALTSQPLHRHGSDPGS
In data set [2] the target is Protein kinase C alpha type (Homo sapiens, UniProt P17252). In kind it is cell-based. The following applies: sf9.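 Further: inhibition of PKCalpha kinase activity measured in an enzyme assay with histone as the phosphorylation substrate; in other assays of this panel Not Active means under 50% inhibition at 10 µM.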
Data set [3] in a line: DRUGMATRIX: Phosphodiesterase PDE3 enzyme inhibition (substrate: [3H]cAMP + cAMP). Conditions: platelet; Not Active = under 50% inhibition at 10 µM. Type of data set: tissue-based, Homo sapiens.
The target of data set [4] is 5-hydroxytryptamine receptor 1B (Rattus norvegicus, UniProt P28564). Type of data set: cell membranes, Wistar, Cerebral cortex, Membrane. Further: in other assays of this panel Not Active means under 50% inhibition at 10 µM.
Sequence of 5-hydroxytryptamine receptor 1B (P28564 whole entry): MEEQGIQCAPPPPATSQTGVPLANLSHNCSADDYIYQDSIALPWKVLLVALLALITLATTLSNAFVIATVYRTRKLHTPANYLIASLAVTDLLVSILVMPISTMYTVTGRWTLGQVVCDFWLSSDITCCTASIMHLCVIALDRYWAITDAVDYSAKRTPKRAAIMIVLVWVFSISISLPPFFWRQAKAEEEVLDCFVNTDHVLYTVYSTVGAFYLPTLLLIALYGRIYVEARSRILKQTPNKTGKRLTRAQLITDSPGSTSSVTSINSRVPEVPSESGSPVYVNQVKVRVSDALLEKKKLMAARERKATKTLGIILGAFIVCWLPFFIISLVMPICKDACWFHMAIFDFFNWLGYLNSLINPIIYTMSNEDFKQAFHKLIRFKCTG
In data set [5] the target is T3, Alpha-2C adrenergic receptor (Homo sapiens, UniProt P18825).
T3 sequence (P18825 whole entry): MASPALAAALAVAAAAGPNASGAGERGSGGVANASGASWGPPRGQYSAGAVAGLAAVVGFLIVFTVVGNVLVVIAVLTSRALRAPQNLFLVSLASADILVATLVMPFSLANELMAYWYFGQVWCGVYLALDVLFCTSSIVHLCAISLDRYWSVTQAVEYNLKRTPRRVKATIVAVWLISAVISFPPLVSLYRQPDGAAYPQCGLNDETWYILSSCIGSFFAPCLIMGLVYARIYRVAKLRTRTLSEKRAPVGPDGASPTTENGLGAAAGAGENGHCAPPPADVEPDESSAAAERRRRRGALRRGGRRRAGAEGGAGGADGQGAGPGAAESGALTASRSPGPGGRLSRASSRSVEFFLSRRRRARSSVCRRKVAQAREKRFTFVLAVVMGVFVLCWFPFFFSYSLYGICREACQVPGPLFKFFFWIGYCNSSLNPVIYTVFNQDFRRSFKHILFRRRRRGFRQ
Kind of data set: DRUGMATRIX: Adrenergic Alpha-2C radioligand binding (ligand: [3H] MK-912). The following applies: sf9. In kind it is cell membranes, Sf9, Membrane.

Data set [6] can be described thus: DRUGMATRIX: Nicotinic Acetylcholine radioligand binding (ligand: [125I] Epibatidine). Type of data set: cell membranes, Membrane. The following applies: imr-32; Not Active = under 50% inhibition at 10 µM.
The target in data set [7] is T4, Vasoactive intestinal polypeptide receptor 1 (Homo sapiens, UniProt P32241). Further: in other assays of this panel Not Active means under 50% inhibition at 10 µM.
T4 sequence (P32241 whole entry): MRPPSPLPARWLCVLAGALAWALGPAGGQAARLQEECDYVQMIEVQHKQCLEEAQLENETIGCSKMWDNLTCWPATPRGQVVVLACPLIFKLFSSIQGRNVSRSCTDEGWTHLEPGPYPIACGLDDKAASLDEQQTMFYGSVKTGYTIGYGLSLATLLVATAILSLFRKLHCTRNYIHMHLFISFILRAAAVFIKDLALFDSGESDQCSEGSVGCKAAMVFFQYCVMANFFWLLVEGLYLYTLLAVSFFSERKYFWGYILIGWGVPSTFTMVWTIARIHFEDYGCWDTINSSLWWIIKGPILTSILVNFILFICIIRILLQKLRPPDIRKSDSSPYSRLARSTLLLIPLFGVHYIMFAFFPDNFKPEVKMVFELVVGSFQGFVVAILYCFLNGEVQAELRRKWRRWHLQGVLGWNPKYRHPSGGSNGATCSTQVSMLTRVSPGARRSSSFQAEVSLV
In kind it is cell membranes, Membrane. The following applies: ht-29.

Data set [8] concerns the target 5-hydroxytryptamine receptor 2B (Homo sapiens, UniProt P41595). In kind it is cell membranes, CHO-K1, Membrane. Further: in other assays of this panel Not Active means under 50% inhibition at 10 µM.
The target of another data set is Cytochrome P450 2D6 (Homo sapiens, UniProt P10635). The following applies: bti-tn-5b1-4. Further: in other assays of this panel Not Active means under 50% inhibition at 10 µM.
Sequence of Cytochrome P450 2D6 (P10635 whole entry): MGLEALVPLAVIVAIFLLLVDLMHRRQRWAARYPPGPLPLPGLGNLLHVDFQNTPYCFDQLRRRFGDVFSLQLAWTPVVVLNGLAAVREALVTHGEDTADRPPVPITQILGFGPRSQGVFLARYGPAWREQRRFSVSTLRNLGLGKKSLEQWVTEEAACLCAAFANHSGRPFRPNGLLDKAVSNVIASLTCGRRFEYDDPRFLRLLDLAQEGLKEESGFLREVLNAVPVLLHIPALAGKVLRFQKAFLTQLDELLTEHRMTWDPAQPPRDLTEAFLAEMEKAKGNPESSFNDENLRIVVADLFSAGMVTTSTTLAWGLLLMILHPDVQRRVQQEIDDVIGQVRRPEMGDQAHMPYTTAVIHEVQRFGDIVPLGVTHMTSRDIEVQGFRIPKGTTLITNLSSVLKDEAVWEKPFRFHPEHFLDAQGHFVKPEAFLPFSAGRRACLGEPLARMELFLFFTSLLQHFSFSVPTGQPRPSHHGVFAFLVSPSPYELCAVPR

Molecules are shown by their SMILES.

Sequence of 5-hydroxytryptamine receptor 2B (P41595 whole entry): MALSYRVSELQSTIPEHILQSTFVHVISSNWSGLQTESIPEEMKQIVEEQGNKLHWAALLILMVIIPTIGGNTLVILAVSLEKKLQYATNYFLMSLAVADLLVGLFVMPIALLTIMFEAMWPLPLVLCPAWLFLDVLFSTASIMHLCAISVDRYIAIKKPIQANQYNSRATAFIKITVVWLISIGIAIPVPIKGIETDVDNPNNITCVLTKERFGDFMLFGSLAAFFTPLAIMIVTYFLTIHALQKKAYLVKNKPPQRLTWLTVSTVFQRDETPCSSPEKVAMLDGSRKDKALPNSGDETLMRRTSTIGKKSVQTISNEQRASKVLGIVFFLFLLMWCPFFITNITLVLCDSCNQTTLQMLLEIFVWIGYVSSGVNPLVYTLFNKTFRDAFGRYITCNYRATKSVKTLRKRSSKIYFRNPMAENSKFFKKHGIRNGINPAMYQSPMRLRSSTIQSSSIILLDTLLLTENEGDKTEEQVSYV
Sequence of D(1A) dopamine receptor (P21728 whole entry): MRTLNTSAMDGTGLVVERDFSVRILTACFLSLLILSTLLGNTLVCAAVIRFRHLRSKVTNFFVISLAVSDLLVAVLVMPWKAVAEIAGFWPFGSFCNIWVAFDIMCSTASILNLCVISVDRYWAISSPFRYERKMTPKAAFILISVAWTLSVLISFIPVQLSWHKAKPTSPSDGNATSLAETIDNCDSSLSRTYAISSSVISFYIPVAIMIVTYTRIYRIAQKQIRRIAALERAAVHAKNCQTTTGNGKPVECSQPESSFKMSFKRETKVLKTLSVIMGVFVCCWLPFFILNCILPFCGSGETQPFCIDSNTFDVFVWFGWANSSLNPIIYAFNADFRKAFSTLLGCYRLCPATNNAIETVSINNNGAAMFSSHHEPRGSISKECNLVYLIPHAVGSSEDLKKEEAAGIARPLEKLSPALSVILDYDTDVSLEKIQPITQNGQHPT

In the case of `CC(CCc1ccccc1)NCC(O)c1ccc(O)c(C(N)=O)c1` (stereo not given) [LABETALOL], the IC50 entry (against Cytochrome P450 1A2; at D(1A) dopamine receptor; at Glucocorticoid receptor; in [1]; in data set [2]; in [3]) was “Not Active” each time. Moreover, the IC50 (in general, the point on the concentration scale where inhibition reaches its midpoint) in data set [4] is “Not Active”; in data set [5] it was “Not Active”; in data set [6] it was “Not Active”; in data set [7], “Not Active”; in data set [8] (read-out: IC50), 3040 nM. Further, the Ki (in general, the equilibrium dissociation constant of an inhibitor or competing ligand from its target) at Cytochrome P450 1A2 is “Not Active”; in data set [1], “Not Active”; in data set [3], “Not Active”; in data set [6], “Not Active”; in data set [8] (read-out: Ki), 1930 nM.

For the compound `NCCCC[C@H](N[C@@H](CCc1ccccc1)C(=O)O)C(=O)N1CCC[C@H]1C(=O)O` [LISINOPRIL ANHYDROUS], the IC50 result (on D(1A) dopamine receptor; at Glucocorticoid receptor; in data set [2]; in [3]; in data set [4]; in [5]) was “Not Active” in each case. The IC50 entry (against Cytochrome P450 2D6; in data set [6]; in data set [7]; in data set [8] (cho-k1)) was “Not Active” in each case. For the same compound, the Ki result (in data set [3]; on Cytochrome P450 2D6; in [6]) was “Not Active” in each case.

Regarding `COC(=O)C1=C(C)NC(C)=C(C(=O)OC)C1c1ccccc1[N+](=O)[O-]` [NIFEDIPINE], the IC50 entry (at D(1A) dopamine receptor; at Glucocorticoid receptor; in data set [2]; in data set [3]; in data set [4]; in data set [5]) was “Not Active” throughout. Moreover, the IC50 result in data set [6], in data set [7] and in [8] (cho-k1) was “Not Active” throughout. In addition, the Ki result in data set [3] and in [6] was “Not Active” throughout.

As for `CN[C@@H]1[C@@H](O)[C@@H](O[C@@H]2[C@@H](O)[C@H](O[C@H]3OC(CN)=CC[C@H]3N)[C@@H](N)C[C@H]2N)OC[C@]1(C)O` [SISOMICIN], the IC50 entry (on D(1A) dopamine receptor; on Glucocorticoid receptor; in [1]; in data set [2]; in [3]; in data set [4]) was “Not Active” in each case. The IC50 entry in data set [5], in data set [6], in data set [7] and in [8] (cho-k1) was “Not Active” throughout. The Ki entry in data set [1], in data set [3] and in data set [6] was “Not Active” each time.

`Cc1cc(NS(=O)(=O)c2ccc(N)cc2)no1` [SULFAMETHOXAZOLE]: the IC50 entry (on D(1A) dopamine receptor; against Glucocorticoid receptor; in data set [2]; in data set [3]; in data set [4]; in data set [5]) was “Not Active” throughout. Also, the IC50 entry in data set [6], in [7] and in [8] (cho-k1) was “Not Active” each time. The Ki entry in data set [3] and in data set [6] was “Not Active” throughout.

Consider `Nc1ccc(S(N)(=O)=O)cc1` [SULFANILAMIDE], for which the IC50 result (at D(1A) dopamine receptor; against Glucocorticoid receptor; in data set [2]; in data set [3]; in data set [4]; in data set [5]) was “Not Active” each time. Besides, the IC50 result in data set [6], in [7] and in data set [8] (cho-k1) was “Not Active” each time. For the same compound, the Ki entry in data set [3] and in data set [6] was “Not Active” in each case.

In the case of `CN(C)[C@@H]1C(O)=C(C(N)=O)C(=O)[C@@]2(O)C(O)=C3C(=O)c4c(O)cccc4[C@@](C)(O)[C@H]3C[C@@H]12` [TETRACYCLINE], the IC50 entry (on D(1A) dopamine receptor; against Glucocorticoid receptor; in data set [1]; in data set [2]; in data set [3]; in data set [4]) was “Not Active” throughout. Besides, the IC50 entry (in data set [5]; against Cytochrome P450 2D6; in [6]; in data set [7]; in [8] (cho-k1)) was “Not Active” in each case. The Ki entry (in data set [1]; in [3]; on Cytochrome P450 2D6; in [6]) was “Not Active” in each case.

On to `c1ccc2[nH]c(-c3cscn3)nc2c1` [THIABENDAZOLE], for which the concentration for half-maximal inhibition (IC50) entry (on D(1A) dopamine receptor; at Glucocorticoid receptor; in [1]; in data set [2]; in data set [3]; in data set [4]) was “Not Active” each time. Also, the IC50 entry (in data set [5]; on Cytochrome P450 2D6; in [6]; in [7]; in [8] (cho-k1)) was “Not Active” in each case. In addition, the Ki entry (in data set [1]; in data set [3]; at Cytochrome P450 2D6; in data set [6]) was “Not Active” in each case.

For the origin of these results see ChEMBL document CHEMBL1909046, “DrugMatrix in vitro pharmacology data”.
